Results as given in ChEMBL document CHEMBL1157750, “Synthesis and evaluation of 17alpha-arylestradiols as ligands for estrogen receptor alpha and beta” (J Med Chem, 2010).
Where “and” joins values, the source holds several entries; their conditions need not be identical. Identical values can stand only once. Calls of active or inactive are those of the source. The calls are words filed in the database; no cut-off is given here.

Experiments:
MCF7 [1] = assay: Estrogenic activity in human MCF7 cells assessed as induction of cell proliferation at 100 nM after 6 days by fluorescence assay; type: functional, cell-based
MCF7 [2] = assay: Estrogenic activity in human MCF7 cells assessed as induction of cell proliferation at 0.001 to 1 nM after 6 days by fluorescence assay; type: functional, cell-based
Estrogen receptor beta [3] = molecular target: T1, Estrogen receptor beta (Homo sapiens, UniProt Q92731)
T1 sequence (Q92731 whole entry): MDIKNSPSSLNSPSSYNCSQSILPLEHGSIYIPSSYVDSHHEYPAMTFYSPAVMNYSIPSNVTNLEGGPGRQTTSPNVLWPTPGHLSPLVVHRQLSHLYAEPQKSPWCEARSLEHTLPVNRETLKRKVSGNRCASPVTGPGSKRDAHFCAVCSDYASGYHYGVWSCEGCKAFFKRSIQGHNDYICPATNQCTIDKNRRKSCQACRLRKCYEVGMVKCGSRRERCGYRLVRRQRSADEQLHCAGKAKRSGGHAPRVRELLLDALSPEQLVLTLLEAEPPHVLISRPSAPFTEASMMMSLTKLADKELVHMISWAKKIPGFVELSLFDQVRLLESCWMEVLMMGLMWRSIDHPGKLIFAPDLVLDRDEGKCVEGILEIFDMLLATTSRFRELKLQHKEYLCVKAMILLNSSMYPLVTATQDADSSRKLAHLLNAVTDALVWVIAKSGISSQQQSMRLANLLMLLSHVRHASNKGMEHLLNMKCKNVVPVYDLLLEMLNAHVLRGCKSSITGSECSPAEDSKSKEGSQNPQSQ
Description: Transactivation of human ERbeta expressed in HEK293 cells after 18 hrs by luciferase reporter gene assay

Estrogen receptor beta [4] = molecular target: T1, Estrogen receptor beta; remark: listed apart in the source
Description: Binding affinity to ERbeta by fluorescence polarization-based competitive binding assay

Estrogen receptor [5] = molecular target: T2, Estrogen receptor (Homo sapiens, UniProt P03372)
T2 sequence (P03372 whole entry): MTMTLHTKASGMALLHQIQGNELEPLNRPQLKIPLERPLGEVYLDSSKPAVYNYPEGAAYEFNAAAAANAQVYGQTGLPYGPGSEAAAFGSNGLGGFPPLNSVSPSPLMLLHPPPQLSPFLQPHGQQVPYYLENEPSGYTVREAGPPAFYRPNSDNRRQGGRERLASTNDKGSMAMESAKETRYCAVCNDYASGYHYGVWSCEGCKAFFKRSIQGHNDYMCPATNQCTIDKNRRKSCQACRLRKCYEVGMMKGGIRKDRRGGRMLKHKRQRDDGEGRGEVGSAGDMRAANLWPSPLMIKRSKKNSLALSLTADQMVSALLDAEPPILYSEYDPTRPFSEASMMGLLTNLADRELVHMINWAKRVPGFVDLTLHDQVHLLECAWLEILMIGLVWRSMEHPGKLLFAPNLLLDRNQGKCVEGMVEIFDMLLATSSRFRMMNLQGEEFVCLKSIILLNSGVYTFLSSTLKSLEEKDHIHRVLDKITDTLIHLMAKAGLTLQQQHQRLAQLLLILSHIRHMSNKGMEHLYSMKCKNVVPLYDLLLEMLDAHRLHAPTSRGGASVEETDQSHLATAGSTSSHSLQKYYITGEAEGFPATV
Description: Binding affinity to ERalpha by fluorescence polarization-based competitive binding assay

Estrogen receptor [6] = molecular target: T2, Estrogen receptor; remark: listed apart in the source
Description: Transactivation of human ERalpha expressed in HEK293 cells after 18 hrs by luciferase reporter gene assay

Homo sapiens = species on record: Homo sapiens; assay: Selectivity ratio of EC50 for human ERbeta to EC50 for human ERalpha
MCF7 [7] = assay: Estrogenic activity in human MCF7 cells assessed as induction of cell proliferation at 1 nM after 6 days by fluorescence assay; type: functional, cell-based

Row | SMILES | Activity (MCF7 [1]) | Activity (MCF7 [2]) | EC50 (Estrogen receptor beta [3]) | IC50 (Estrogen receptor beta [4]) [nM] | IC50 (Estrogen receptor [5]) [nM] | EC50 (Estrogen receptor [6]) [nM] | Ratio EC50 (Homo sapiens) | Activity (MCF7 [7])
1 | C[C@]12CC[C@@H]3c4ccc(O)cc4CC[C@H]3[C@@H]1CC[C@@]2(O)c1ccc2c(c1)COC2 | Active | Active |  |  |  |  |  | 
2 | CCOC(=O)C1(C#N)Cc2ccc([C@]3(O)CC[C@H]4[C@@H]5CCc6cc(O)ccc6[C@H]5CC[C@@]43C)cc2C1 (some centres not stated) | Active | Active | 22.7 nM | 53.6 |  |  |  | 
3 | CCOC(=O)C1(C(C)=O)Cc2ccc([C@]3(O)CC[C@H]4[C@@H]5CCc6cc(O)ccc6[C@H]5CC[C@@]43C)cc2C1 (some centres not stated) | Active | Active | 34.6 nM | 319 |  |  |  | 
4 | CCOC(=O)C1(C(=O)OCC)Cc2ccc([C@]3(O)CC[C@H]4[C@@H]5CCc6cc(O)ccc6[C@H]5CC[C@@]43C)cc2C1 | Active | Active | 175 nM and 174 nM | 1080 | 492 | 14.1 | 13 | 
5 | CC(=O)C1(C(C)=O)Cc2ccc([C@]3(O)CC[C@H]4[C@@H]5CCc6cc(O)ccc6[C@H]5CC[C@@]43C)cc2C1 | Active |  | 221 nM | 254 | 243 | 336 |  | Active
6 | Cc1ccc(S(=O)(=O)N2Cc3ccc([C@]4(O)CC[C@H]5[C@@H]6CCc7cc(O)ccc7[C@H]6CC[C@@]54C)cc3C2)cc1 | Active | Active | 242 nM | 500 |  |  |  | 
